In ChEMBL document CHEMBL5724914, “Linking interpersonal differences in gut microbiota composition and drug biotransformation activity” (2024):

How the values were obtained:
[1] = human gut metagenome, 24 h, 2 µM
[2] = (§1) The drug is tested on Z-008 corresponding to metagenome with ENA study accession number: PRJEB37062 and ENA sample accession number: ERS12561808 for biotransformation under anaerobic condition. The drug concentrations were measured over 9 timepoints collected between 0 and 24 hours of incubation by liquid-chromatography-coupled mass spectrometry (LC–MS); details: 2 µM
[3] = The drug is tested on Z-029 corresponding to rat gut metagenome with ENA study accession number: PRJEB37062 and ENA sample accession number: ERS12561828 for biotransformation under anaerobic condition. The drug concentrations were measured over 9 timepoints collected between 0 and 24 hours of incubation by liquid-chromatography-coupled mass spectrometry (LC–MS); details: 2 µM
[4] = as §1, with “Z-010” for “Z-008”, “ERS12561810” for “ERS12561808”; details: 2 µM
[5] = human gut metagenome, 24 h, 2 µM; remark: listed apart in the source
[6] = human gut metagenome, 24 h, 2 µM; remark: listed apart in the source
[7] = human gut metagenome, 24 h, 2 µM; remark: listed apart in the source
[8] = human gut metagenome, 24 h, 2 µM; remark: listed apart in the source
[9] = human gut metagenome, 24 h, 2 µM; remark: listed apart in the source
Also: call rule not given here.

SMILES	Bacterial Biotransformation [1]	Bacterial Biotransformation [2]	Bacterial Biotransformation [3]	Bacterial Biotransformation [4]	Bacterial Biotransformation [5]	Bacterial Biotransformation [6]	Bacterial Biotransformation [7]	Bacterial Biotransformation [8]	Bacterial Biotransformation [9]
CCOC(=O)[C@H](CCc1ccccc1)N[C@@H](C)C(=O)N1[C@H](C(=O)O)C[C@@H]2CCC[C@@H]21	Compound metabolized	Compound NOT metabolized	Compound NOT metabolized	Compound metabolized	Compound metabolized	Compound metabolized	Compound NOT metabolized	Compound metabolized	Compound metabolized
CCN(CC)CCNC(C(=O)OCCC(C)C)c1ccccc1.Cl.Cl (centres undefined)	Compound metabolized	Compound NOT metabolized	Compound NOT metabolized	Compound metabolized	Compound NOT metabolized	Compound NOT metabolized	Compound NOT metabolized	Compound metabolized	Compound metabolized
CCCC(=O)Nc1ccc(OCC(O)CNC(C)C)c(C(C)=O)c1 (centres undefined) [ACEBUTOLOL]	Compound NOT metabolized	Compound NOT metabolized	Compound NOT metabolized	Compound NOT metabolized	Compound metabolized	Compound metabolized	Compound metabolized	Compound metabolized	Compound metabolized
C=CCc1ccccc1OCC(O)CNC(C)C (centres undefined) [ALPRENOLOL]	Compound NOT metabolized	Compound NOT metabolized	Compound NOT metabolized	Compound NOT metabolized	Compound metabolized	Compound NOT metabolized	Compound NOT metabolized	Compound metabolized	Compound NOT metabolized
CCC1(c2ccc(N)cc2)CCC(=O)NC1=O (centres undefined) [AMINOGLUTETHIMIDE]	Compound NOT metabolized	Compound NOT metabolized	–	Compound NOT metabolized	Compound NOT metabolized	Compound NOT metabolized	Compound NOT metabolized	Compound NOT metabolized	Compound NOT metabolized
CN1CCc2cccc3c2[C@H]1Cc1ccc(O)c(O)c1-3 [APOMORPHINE]	Compound NOT metabolized	–	Compound NOT metabolized	–	–	Compound NOT metabolized	Compound NOT metabolized	Compound NOT metabolized	Compound NOT metabolized
C[C@@H]1CC[C@H]2[C@@H](C)C(=O)O[C@@H]3O[C@@]4(C)CC[C@@H]1[C@]32OO4 [ARTEMISININ]	Compound metabolized	–	Compound metabolized	–	Compound metabolized	–	Compound metabolized	Compound metabolized	Compound metabolized
CC(C)c1c(C(=O)Nc2ccccc2)c(-c2ccccc2)c(-c2ccc(F)cc2)n1CC[C@@H](O)C[C@@H](O)CC(=O)O [ATORVASTATIN]	Compound metabolized	Compound NOT metabolized	Compound NOT metabolized	Compound metabolized	Compound metabolized	Compound metabolized	Compound NOT metabolized	Compound metabolized	Compound metabolized
OC(CCN1CCCCC1)(c1ccccc1)C1CC2C=CC1C2 (centres undefined) [BIPERIDEN]	Compound NOT metabolized	–	–	–	Compound NOT metabolized	Compound NOT metabolized	Compound NOT metabolized	Compound metabolized	Compound metabolized
CN1C(=O)CCS(=O)(=O)C1c1ccc(Cl)cc1 (centres undefined) [CHLORMEZANONE]	Compound NOT metabolized	Compound NOT metabolized	–	Compound NOT metabolized	Compound NOT metabolized	Compound NOT metabolized	Compound NOT metabolized	Compound metabolized	Compound NOT metabolized
CC(=O)O[C@]1(C(C)=O)CC[C@H]2[C@@H]3C=C(Cl)C4=CC(=O)[C@@H]5C[C@@H]5[C@]4(C)[C@H]3CC[C@@]21C [CYPROTERONE ACETATE]	Compound metabolized	–	–	Compound metabolized	Compound metabolized	Compound metabolized	Compound metabolized	Compound metabolized	Compound NOT metabolized
CN1C[C@H](C(=O)N[C@]2(C)O[C@@]3(O)[C@@H]4CCCN4C(=O)[C@H](Cc4ccccc4)N3C2=O)C=C2c3cccc4[nH]cc(c34)C[C@H]21.CN1C[C@H](C(=O)N[C@]2(C)O[C@@]3(O)[C@@H]4CCCN4C(=O)[C@H](Cc4ccccc4)N3C2=O)C=C2c3cccc4[nH]cc(c34)C[C@H]21.O=C(O)C(O)C(O)C(=O)O [ERGOTAMINE TARTRATE]	–	Compound NOT metabolized	–	–	Compound NOT metabolized	Compound metabolized	Compound metabolized	–	Compound metabolized
COC(=O)C1=C(C)NC(C)=C(C(=O)OC(C)C)C1c1cccc2nonc12 (centres undefined) [ISRADIPINE]	Compound metabolized	–	–	–	Compound metabolized	Compound NOT metabolized	Compound NOT metabolized	Compound metabolized	Compound NOT metabolized
CC[C@H](C)C(=O)O[C@H]1C[C@@H](C)C=C2C=C[C@H](C)[C@H](CC[C@@H]3C[C@@H](O)CC(=O)O3)[C@H]21 [LOVASTATIN]	Compound NOT metabolized	Compound NOT metabolized	Compound NOT metabolized	Compound NOT metabolized	–	Compound NOT metabolized	Compound NOT metabolized	Compound NOT metabolized	Compound metabolized
CN1C(=O)CC(C)(c2ccccc2)C1=O (centres undefined) [METHSUXIMIDE]	Compound NOT metabolized	Compound NOT metabolized	–	Compound NOT metabolized	Compound NOT metabolized	Compound NOT metabolized	Compound NOT metabolized	Compound metabolized	Compound metabolized
COc1ccccc1N1CCN(CC(O)COc2cccc3ccccc23)CC1 (centres undefined) [NAFTOPIDIL]	Compound NOT metabolized	Compound NOT metabolized	–	Compound NOT metabolized	Compound NOT metabolized	Compound NOT metabolized	Compound NOT metabolized	Compound NOT metabolized	Compound NOT metabolized
CN(C(=O)CN(CCO)CC(=O)N(C)C(C)(C)Cc1ccccc1)C(C)(C)Cc1ccccc1 [OXETHAZAINE]	Compound metabolized	–	–	–	Compound metabolized	Compound NOT metabolized	Compound NOT metabolized	Compound metabolized	Compound metabolized
Cc1nc2n(c(=O)c1CCN1CCC(c3noc4cc(F)ccc34)CC1)CCCC2O (centres undefined) [PALIPERIDONE]	Compound metabolized	Compound NOT metabolized	–	Compound NOT metabolized	Compound metabolized	Compound metabolized	Compound metabolized	Compound metabolized	Compound metabolized
Cc1nc2n(c(=O)c1CCN1CCC(c3noc4cc(F)ccc34)CC1)CCCC2 [RISPERIDONE]	Compound metabolized	Compound metabolized	Compound NOT metabolized	Compound metabolized	Compound metabolized	Compound metabolized	Compound metabolized	–	Compound metabolized
CN(C)CCc1c[nH]c2ccc(Cn3cncn3)cc12.O=C(O)c1ccccc1 [RIZATRIPTAN BENZOATE]	Compound NOT metabolized	Compound NOT metabolized	Compound NOT metabolized	Compound NOT metabolized	Compound NOT metabolized	Compound NOT metabolized	Compound NOT metabolized	Compound NOT metabolized	–
Cc1ccc(/C(=C\CN2CCCC2)c2ccccn2)cc1 [TRIPROLIDINE]	Compound NOT metabolized	Compound NOT metabolized	–	Compound NOT metabolized	Compound NOT metabolized	Compound NOT metabolized	Compound NOT metabolized	Compound NOT metabolized	Compound NOT metabolized
